US6425888B1, “Ocular treatment device” (R. P. Scherer Corporation, priority 1994, dated 2002)
Structures can show the parent of a compound that is named as a salt.

System: rabbits
Test: Miotic response (pupil diameter) of rabbits after a single spray from the blister crushing device of FIG. 18
Format: in vivo, rabbit
Details: left eye, mean of 5 rabbits
Source text: The device of FIG. 18 was used in a study of the ocular response of rabbits to treatment according to the invention. The rabbits selected for the study were allowed to acclimatise for 4-5 days prior to treatment. They were subjected to manual restraining for 2 days prior to the study to condition them to the procedures involved in dosing. A device of the kind illustrated in FIG. 18 was then used to administer a single spray of isotonic 2% Pilocarpine hydrochloride (Pilocarpine HCl) solution to the corneal surface of the left eve of each of 5 rabbits, the right eyes remaining undosed. The following settings were used: 100 μm nozzle diameter 2.5 cm distance between nozzle tip and animal eye Sprays targeted towards the centre of the cornea of the animal eye The miotic response (reduction in pupil diameter) at various intervals following the application of the pilocarpine HCl solution was monitored under constant illumination using video photography. The pupil diameter of the left eye was expressed in proportion to the diameter of a fixed reference aperture situated at an equal distance from the video camera. The actual diameter was then calculated from the known diameter of the reference aperture.

CC[C@@H]1C(=O)OC[C@@H]1Cc1cncn1C [Pilocarpine HCl, Pilocarpine hydrochloride]
Pupil Diameter (+15 min after dose): 6.7 mm
Pupil Diameter (+30 min after dose): 6.8 mm
Pupil Diameter (+45 min after dose): 6.9 mm
Pupil Diameter (+1 hr after dose): 6.8 mm
Pupil Diameter (+1.5 hr after dose): 6.9 mm
Pupil Diameter (+2 hr after dose): 7.3 mm
Pupil Diameter (+2.5 hr after dose): 7.8 mm
Pupil Diameter (+3 hr after dose): 7.9 mm
Pupil Diameter (+3.5 hr after dose): 8.0 mm
Pupil Diameter (+4 hr after dose): 7.8 mm
Pupil Diameter (Dose (0 min), single spray of isotonic 2% solution to cornea): 7.8 mm
